Values quoted from earlier work as cited in patent US9510613B2, “Panaxadiol-containing composition” (LION CORPORATION, priority 2011, dated 2016).

conditions: commercial component, Table 3

Point of comparison: Sucrose Palmitic Acid Ester, HLB 16. Against it:
- Glycerin Monostearate Citrate — lower, 9.5
- Sucrose Lauric Acid Ester — the same, 16
- Sucrose Myristic Acid Ester — the same, 16
- Sucrose Stearic Acid Ester — the same, 16
